The supplement of paper PMC13380429

What was measured:
Settings in all cases: 72 h
Caco-2 [1] = assay: cell viability relative to DMSO; higher = less toxic
Calu-3 [2] = assay: as above
HepG2 [3] = assay: as above
U2OS [4] = assay: as above
Caco-2 [5] = assay: relative viability EC50 (midpoint between 100% and the lowest measured viability); higher = less toxic
Calu-3 [6] = assay: as above
HepG2 [7] = assay: as above
U2OS [8] = assay: as above
Caco-2 [9] = assay: drug sensitivity score (DSS) for viability; higher = more toxic; extreme values may be limits of the assay
Calu-3 [10] = assay: as above
HepG2 [11] = assay: as above
U2OS [12] = assay: as above
Vero E6 [13] = assay: cell viability relative to DMSO; higher = less toxic
Vero E6 [14] = assay: relative viability EC50 (midpoint between 100% and the lowest measured viability); higher = less toxic
Vero E6 [15] = assay: drug sensitivity score (DSS) for viability; higher = more toxic; extreme values may be limits of the assay

Compound	cell viability (Caco-2 [1]; 1 nM)	cell viability (Caco-2 [1]; 10 nM)	cell viability (Caco-2 [1]; 100 nM)	cell viability (Caco-2 [1]; 1000 nM)	cell viability (Caco-2 [1]; 10000 nM)	cell viability (Calu-3 [2]; 1 nM)	cell viability (Calu-3 [2]; 10 nM)	cell viability (Calu-3 [2]; 100 nM)	cell viability (Calu-3 [2]; 1000 nM)	cell viability (Calu-3 [2]; 10000 nM)	cell viability (HepG2 [3]; 1 nM)	cell viability (HepG2 [3]; 10 nM)	cell viability (HepG2 [3]; 100 nM)	cell viability (HepG2 [3]; 1000 nM)	cell viability (HepG2 [3]; 10000 nM)	cell viability (U2OS [4]; 1 nM)	cell viability (U2OS [4]; 10 nM)	cell viability (U2OS [4]; 100 nM)	cell viability (U2OS [4]; 1000 nM)	cell viability (U2OS [4]; 10000 nM)	relative viability EC50 (Caco-2 [5])	relative viability EC50 (Calu-3 [6])	relative viability EC50 (HepG2 [7])	relative viability EC50 (U2OS [8])	drug sensitivity score (Caco-2 [9])	drug sensitivity score (Calu-3 [10])	drug sensitivity score (HepG2 [11])	drug sensitivity score (U2OS [12])	cell viability (Vero E6 [13]; 1 nM)	cell viability (Vero E6 [13]; 10 nM)	cell viability (Vero E6 [13]; 100 nM)	cell viability (Vero E6 [13]; 1000 nM)	cell viability (Vero E6 [13]; 10000 nM)	relative viability EC50 (Vero E6 [14])	drug sensitivity score (Vero E6 [15])
CS(=O)(=O)Nc1ccc(-c2coc3cc(OCc4cccc(C(=O)O)c4)ccc3c2=O)cc1	94.9%	97.6%	97.7%	97.1%	101%	108%	90.4%	96.2%	101%	103%	92.6%	107%	101%	109%	93.2%	97.8%	99.1%	107%	105%	103%	> 10 µM	> 10 µM	> 10 µM	> 10 µM	0	0	0	0	–	–	–	–	–	–	–
CS(=O)(=O)c1cccc(CNc2nc(Nc3ccc4c(c3)CCC(=O)N4)ncc2C(F)(F)F)c1	94.6%	101%	95.3%	96.6%	85.5%	108%	99.5%	101%	88.2%	88.5%	104%	111%	94.4%	94.9%	50.2%	98.3%	97.6%	93.7%	92.4%	46%	> 10 µM	> 10 µM	–	2.04 µM	0.3	0.5	3.5	4.2	103%	96.9%	99.1%	87%	78.8%	> 10 µM	1.8
Cc1ccc2c(N3CCN(CCc4cccc(N5CCNC5=O)c4)CC3)cccc2n1	104%	98%	93.9%	101%	96%	93.6%	94.8%	108%	99.2%	97.6%	96.1%	98.6%	89.2%	92.8%	73.5%	101%	101%	101%	95.5%	97.7%	> 10 µM	> 10 µM	–	> 10 µM	0	0	1.7	0	99.8%	100%	98.3%	103%	96.3%	> 10 µM	0
Cc1nc[nH]c1CCN [4-methylhistamine]	91.9%	95.1%	99.2%	100%	101%	89.5%	101%	107%	88%	99.2%	98.1%	98.6%	88.5%	96.2%	91.9%	95.1%	99.5%	104%	98%	104%	> 10 µM	> 10 µM	> 10 µM	> 10 µM	0	0	0	0	–	–	–	–	–	–	–
Cc1nnc(C[C@@H]2C=C(c3ccc(Cl)cc3)c3ccccc3-n3c(C)nnc32)o1 [BET-BAY-002]	96.9%	97.1%	90.4%	74.8%	68.3%	93.1%	103%	94.7%	62.5%	53.9%	91%	94.1%	87%	58.6%	41.5%	97.1%	101%	88.2%	61.4%	36.9%	–	–	0.355 µM	0.557 µM	4.9	7.4	9.2	8.6	94.6%	98%	72.1%	23.3%	16.2%	0.169 µM	17.5
CCCC[C@@H](NC(=O)[C@@H](Cc1cn(C(=O)OC)c2ccccc12)NC(=O)[C@H](CC(C)(C)C)NC(=O)N1[C@H](C)CCC[C@@H]1C)C(=O)O [BQ-788]	102%	104%	96.1%	106%	104%	98.9%	98.3%	112%	106%	97.2%	89.9%	88.1%	104%	107%	101%	97.1%	90.1%	95.8%	105%	99.8%	> 10 µM	> 10 µM	> 10 µM	> 10 µM	0	0	0	0	–	–	–	–	–	–	–
N#C/C(=C\c1ccc(O)cc1)C(=O)O [CHC]	108%	98.5%	102%	87.6%	102%	–	–	–	–	–	106%	99%	102%	98%	98.8%	101%	93.4%	97.6%	98.6%	99.7%	> 10 µM	–	> 10 µM	> 10 µM	0	–	0	0	–	–	–	–	–	–	–
CCCCCCCCCCC(C)(C)C(=O)Nc1c(OC)cc(OC)cc1OC [CI-976]	98.7%	97.9%	91.7%	99.5%	90.2%	101%	97.6%	95.5%	112%	99.3%	105%	103%	103%	102%	96.5%	100%	101%	98.9%	103%	97.9%	> 10 µM	> 10 µM	> 10 µM	> 10 µM	0	0	0	0	–	–	–	–	–	–	–
CO[C@@H]1COCC[C@@H]1N[C@@H]1CC[C@@](C(=O)N2CCc3ncc(C(F)(F)F)cc3C2)(C(C)C)C1 [MK-0812]	110%	95.7%	99%	113%	97.5%	–	–	–	–	–	96.5%	82.9%	90.3%	94.7%	98.4%	98.8%	106%	101%	106%	103%	> 10 µM	–	> 10 µM	> 10 µM	0	–	0	0	102%	100%	111%	106%	97.2%	> 10 µM	0
O=S(=O)(N[C@H]1CC[C@@](c2cc(F)ccc2F)(S(=O)(=O)c2ccc(Cl)cc2)CC1)C(F)(F)F [MRK-560]	88.8%	99.1%	94.5%	94.7%	95.6%	96.2%	91.2%	104%	97.7%	102%	98.5%	91.2%	106%	81.5%	86.4%	99.9%	102%	100%	101%	95.9%	> 10 µM	> 10 µM	> 10 µM	> 10 µM	0	0	2.1	0	–	–	–	–	–	–	–
O=C(NC[C@H]1CN(c2ccc(N3CCOCC3=O)cc2)C(=O)O1)c1ccc(Cl)s1 [Rivaroxaban (Xarelto)]	92.6%	95.4%	101%	86.9%	91%	96.4%	89.7%	105%	102%	96.4%	102%	102%	97.1%	110%	90.9%	103%	99.1%	102%	96%	102%	> 10 µM	> 10 µM	> 10 µM	> 10 µM	0	0	0	0	–	–	–	–	–	–	–
NS(=O)(=O)c1ccc(-n2nc(C(F)(F)F)cc2-c2ccc(Cl)cc2)cc1 [SC-236]	102%	92%	86.3%	96.6%	82.8%	–	–	–	–	–	111%	99.5%	101%	101%	103%	99.1%	96%	98.1%	102%	103%	> 10 µM	–	> 10 µM	> 10 µM	0.7	–	0	0	94.7%	93.3%	91.6%	91.6%	100%	> 10 µM	0
COc1ccc2c(c1)/C(=C/c1cnc[nH]1)C(=O)N2 [SU9516]	101%	96%	95.3%	105%	96.8%	99.9%	109%	112%	122%	134%	105%	105%	97.7%	90.8%	59.3%	101%	103%	101%	106%	83.7%	> 10 µM	> 10 µM	–	> 10 µM	0	0	3.5	0.2	97.4%	99.4%	95.3%	104%	79%	> 10 µM	0.5
Nc1sc2c(c1C(=O)c1ccc(Cl)cc1)CCCC2 [T-62]	93.7%	99.3%	88.8%	92.4%	90.8%	–	–	–	–	–	105%	98%	103%	101%	107%	98.5%	101%	100%	101%	98%	> 10 µM	–	> 10 µM	> 10 µM	0	–	0	0	–	–	–	–	–	–	–
CNc1nc(NCc2ccc(NS(C)(=O)=O)cc2Cl)cc(-c2ccccn2)n1 [TC-G-1008]	93.1%	105%	90.4%	95.1%	78.5%	105%	113%	98.2%	90%	83.7%	93.9%	91.2%	106%	99.4%	54.8%	100%	108%	101%	100%	79%	> 10 µM	> 10 µM	–	> 10 µM	0.9	0.9	2.4	0.6	105%	106%	98.3%	101%	81.5%	> 10 µM	0.4
NC(=O)Nc1sc(-c2ccc(F)cc2)cc1C(N)=O [TPCA-1]	95.6%	99.4%	94.2%	76.6%	25.8%	98.1%	104%	97.7%	96.4%	75.9%	99.5%	95.8%	94.2%	80.6%	49.8%	100%	104%	95.9%	94.6%	45.3%	1.44 µM	> 10 µM	1.3 µM	2.35 µM	7.2	1.4	4.7	3.8	104%	98.3%	101%	98.2%	52%	–	2.7
